Assay results published in patent US20260258025A1, “INHIBITORS OF TDP-43 AND TAU AGGREGATION” (Aquinnah Pharmaceuticals, inc., priority 2023, published 2026).

Tests used:
TDP-43 aggregation = TDP-43 aggregation assay in SY5Y TDP-43WT cells (high content imaging); format: cell-based; conditions: Homo sapiens, tetracycline induction 24 hrs, 1 hour compound pre-treatment, sodium arsenite 23 hrs, 8-point dose curve, percentage of cells with TDP-43 aggregates, read-out: IC50, Inhibition of TDP-43 Aggregation
Summary of the method: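 Tetracycline-inducible eGFP-tagged wild-type human TDP-43 in SH-SY5Y cells, induced 24 h ([…]), compound pre-treated 1 h, then sodium arsenite […] for 23 h. Fixed cells imaged; percentage of DAPI-counted cells with aggregates gives IC50 from 8-point curves.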

tau stress granules = assay: SY5Y-tT1 tau arsenite assay (tau stress granules per cell); format: cell-based; conditions: SY5Y-tT1 cells, 2 hours compound, 90 minutes arsenite, 50% reduction of granules per cell, read-out: IC50, Inhibitor Activity of Tau Stress Granules
Description: Example 91: In Vitro Efficacy Assay of Exemplary Compounds—SY5Y-tT1 Tau Arsenite/Thapsigargin Assay
• Before harvesting cells—checked to see if cells are ~80% confluency in their flask • 1. Aspirated growth media from flask. • 2. Added 4 mL of (0.25%) trypsin-EDTA (REF: 25200-056) • 3. Placed in 37° C. incubator for 5 minutes. • 4. Removed from incubator and added 11 mL growth media, washing any remaining cells adhered to the bottom of the flask. • 5. Transferred cell containing media to a 50 mL conical tube and spun for 5 minutes at 800 rpm. • 6. Aspirated supernatant and added 5 mL of growth media to cell pellet, triturating to make a homogenous cell solution. • 7. After counting cells, followed one of these plating paradigms: • (A) If treating with arsenite, plated cells at […] with tetracycline solution (5 mg/mL) added to cell solution at 1:5000 • (B) If treating with thapsigargin, plated cells at 4,000 cells/well with tetracycline solution (5 mg/mL) added to cell solution at 1:5000 • 8. Incubated at 37° C. for 48 hours.
• Solubilized all compounds to 10 mM prior to making dilution plates • 1. To a 96-well U-bottom plate (Falcon Non-Tissue Culture Treated Plates REF: 351177) added 120 μL growth media to all 96 wells, with an additional 58.2 μL to row A. • 2. Added 1.8 μL of 10 mM compound stock to wells A1-11, adding 1.8 μL of 10 mM PERKi stock (Selleck Chemistry GSK2606414 Cat No. S7307) as the control. • 3. Serially diluted 60 μL from row A down through each row, finishing with 180 μL total volume in row H. • 4. Transferred 12.5 μL of each dilution plate well to the correlating wells in cell plate, being careful not to touch cells adhered to bottom of the plate. • 5. Incubated for 2 hours.
• 1. Added 720 μL of 0.05 M sodium arsenite solution (CAS #: 7784-46-5) to 10 mL of growth media for a final concentration of […] arsenite solution, mix well. • 2. Added 12.5 μL of arsenite solution to all wells of compounds treated plate intended for arsenite treatment. • 3. Incubated at 37° C. for 90 minutes.
• Before beginning this part of the protocol: • Made 1×PBS by diluting 10× stock (10×, Phosphate buffered saline, Fisher #BP399— • 4) in sterile deionized water. • Diluted paraformaldehyde (16% Paraformaldehyde solution, Electron Microscopy Sciences #15710-S) to 4% in 1×PBS. • Diluted Hoechst stain (Life Technologies #H3570) 1:10,000 in 1×PBS (1 μL Hoechst per 10 mL 1×PBS). • Both solutions were protected from light. • 1) After compound treatment, aspirated media from cell plates and gently added in 50 μL of 4% paraformaldehyde for 10 min protected from light at room temperature. • 2) Aspirated paraformaldehyde solution and gently added 50 μL of 1:10,000 Hoechst solution to each well and incubated for 10 min protected from light at room temperature. • 3) Aspirated Hoechst solution and gently added 100 μL 1×PBS. Cover the plate with aluminum film (VWR #60941-126). • 4) Stored at 4° C. or used immediately for imaging on ThermoFisher CX7 imager.
Exemplary compounds of the disclosed herein were evaluated for efficacy for inhibitor activity of tau stress granules in the arsenite assay and quantified as drug concentration providing a 50% reduction (IC50) of granules per cell is shown in Table 4.
In Table 4 below, A indicates an IC50 (μM)<0.5 μM, B indicates an IC50 (μM) 0.5 μM to <1 μM, C indicates an IC50 (μM) 1 μM to <2 μM, and D indicates an IC50 (μM) 2 μM to <6 μM.

SMILES | IC50 (TDP-43 aggregation) | IC50 (tau stress granules)
Cc1cc(-c2ccc(C3CCN(C)CC3)c(F)c2)sc1C(=O)N1CC[C@H](N)C1 [Compound 136, (S)-(3-aminopyrrolidin-1-yl)(5-(3-fluoro-4-(1-methylpiperidin-4-yl)phenyl)-3-methylthiophen-2-yl)methanone] | < 500 nM | < 500 nM
Cc1cc(-c2ccc(C3CCN(CC4CCCOC4)CC3)cc2)sc1C(=O)N1CC[C@H](N)C1 (stereo partly drawn) [Compound 139, ((S)-3-aminopyrrolidin-1-yl)(3-methyl-5-(4-(1-((tetrahydro-2H-pyran-3-yl)methyl)piperidin-4-yl)phenyl)thiophen-2-yl)methanone] | < 500 nM | 500 to 1000 nM
COCCCN1CCC(c2ccc(-c3cc(C)c(C(=O)N4CC[C@H](N)C4)s3)cc2)CC1 [Compound 141, (S)-(3-aminopyrrolidin-1-yl)(5-(4-(1-(3-methoxypropyl)piperidin-4-yl)phenyl)-3-methylthiophen-2-yl)methanone] | < 500 nM | 500 to 1000 nM
COCCN1CCC(c2ccc(-c3cc(C)c(C(=O)N4CC[C@H](N)C4)s3)cc2)CC1 [Compound 142, (S)-(3-aminopyrrolidin-1-yl)(5-(4-(1-(2-methoxyethyl)piperidin-4-yl)phenyl)-3-methylthiophen-2-yl)methanone] | < 500 nM | 500 to 1000 nM
Cc1cc(-c2ccc(N3CCNCC3)cc2)sc1C(=O)N1CC[C@H](N)C1 [Compound 162, (S)-(3-aminopyrrolidin-1-yl)(3-methyl-5-(4-(piperazin-1-yl)phenyl)thiophen-2-yl)methanone] | – | 1000 to 2000 nM
Cc1cc(-c2ccc(C3CCN(C4COC4)CC3)cc2)sc1C(=O)N1CC[C@H](N)C1 [Compound 164, (S)-(3-aminopyrrolidin-1-yl)(3-methyl-5-(4-(1-(oxetan-3-yl)piperidin-4-yl)phenyl)thiophen-2-yl)methanone] | – | < 500 nM
Cc1cc(-c2ccc(C3(N(C)C)CCOCC3)cc2)sc1C(=O)N1CC[C@H](N)C1 [Compound 166, (S)-(3-aminopyrrolidin-1-yl)(5-(4-(4-(dimethylamino)tetrahydro-2H-pyran-4-yl)phenyl)-3-methylthiophen-2-yl)methanone] | – | < 500 nM
Cc1cc(-c2ccc(C3CCN(C4CCSCC4)CC3)cc2)sc1C(=O)N1CC[C@H](N)C1 [Compound 167, (S)-(3-aminopyrrolidin-1-yl)(3-methyl-5-(4-(1-(tetrahydro-2H-thiopyran-4-yl)piperidin-4-yl)phenyl)thiophen-2-yl)methanone] | – | 1000 to 2000 nM
CCN1CCC(c2ccc(-c3cc(C)c(C(=O)N4CC[C@H](N)C4)s3)cc2)CC1 [Compound 176, (S)-(3-aminopyrrolidin-1-yl)(5-(4-(1-ethylpiperidin-4-yl)phenyl)-3-methylthiophen-2-yl)methanone] | < 500 nM | 500 to 1000 nM
Cc1cc(-c2ccc(C3CCN(C4CCCCC4)CC3)cc2)sc1C(=O)N1CC[C@H](N)C1 [Compound 179, (S)-(3-aminopyrrolidin-1-yl)(5-(4-(1-cyclohexylpiperidin-4-yl)phenyl)-3-methylthiophen-2-yl)methanone] | < 500 nM | 500 to 1000 nM
Cc1cc(-c2ccc(C3CCN(C4CCCC4)CC3)cc2)sc1C(=O)N1CC[C@H](N)C1 [Compound 180, (S)-(3-aminopyrrolidin-1-yl)(5-(4-(1-cyclopentylpiperidin-4-yl)phenyl)-3-methylthiophen-2-yl)methanone] | < 500 nM | < 500 nM
Cc1cc(-c2ccc3c(c2)CNCC3)sc1C(=O)N1CC[C@H](N)C1 [Compound 198, (S)-(3-aminopyrrolidin-1-yl)(3-methyl-5-(1,2,3,4-tetrahydroisoquinolin-7-yl)thiophen-2-yl)methanone] | < 500 nM | 2000 to 6000 nM
Cc1cc(-c2ccc(C3CCN(C)CC3)cc2)sc1C(=O)N1CC[C@H](N)C1 [Compound 201, (S)-(3-aminopyrrolidin-1-yl)(3-methyl-5-(4-(1-methylpiperidin-4-yl)phenyl)thiophen-2-yl)methanone] | < 500 nM | < 500 nM

The next lines start with the values.

IC50 (TDP-43 aggregation) | IC50 (tau stress granules) | SMILES
< 500 nM | 500 to 1000 nM | CCN1CCN(c2ccc(-c3cc(C)c(C(=O)N4CC[C@H](N)C4)s3)cc2)CC1 [Compound 155, (S)-(3-aminopyrrolidin-1-yl)(5-(4-(4-ethylpiperazin-1-yl)phenyl)-3-methylthiophen-2-yl)methanone]
< 500 nM | < 500 nM | Cc1cc(-c2ccc(C3CCN(C4CCS(=O)(=O)CC4)CC3)cc2)sc1C(=O)N1CC[C@H](N)C1 [Compound 156, (S)-(3-aminopyrrolidin-1-yl)(5-(4-(1-(1,1-dioxidotetrahydro-2H-thiopyran-4-yl)piperidin-4-yl)phenyl)-3-methylthiophen-2-yl)methanone]
– | 500 to 1000 nM | Cc1cc(-c2ccc(N3CCN(C(C)C)CC3)cc2)sc1C(=O)N1CC[C@H](N)C1 [Compound 159, (S)-(3-aminopyrrolidin-1-yl)(5-(4-(4-isopropylpiperazin-1-yl)phenyl)-3-methylthiophen-2-yl)methanone]
– | 500 to 1000 nM | Cc1cc(-c2ccc3c(c2)CCOC3)sc1C(=O)N1CC[C@H](N)C1 [Compound 165, (S)-(3-aminopyrrolidin-1-yl)(5-(isochroman-6-yl)-3-methylthiophen-2-yl)methanone]
< 500 nM | < 500 nM | Cc1cc(-c2ccc(C3CCN(C4CCOCC4)CC3)cc2)sc1C(=O)N1CC[C@H](N)C1 [Compound 178, (S)-(3-aminopyrrolidin-1-yl)(3-methyl-5-(4-(1-(tetrahydro-2H-pyran-4-yl)piperidin-4-yl)phenyl)thiophen-2-yl)methanone]
< 500 nM | 500 to 1000 nM | Cc1cc(-c2ccc(C3CCN(C4CCC4)CC3)cc2)sc1C(=O)N1CC[C@H](N)C1 [Compound 181, (S)-(3-aminopyrrolidin-1-yl)(5-(4-(1-cyclobutylpiperidin-4-yl)phenyl)-3-methylthiophen-2-yl)methanone]
< 500 nM | < 500 nM | CCCN1CCC(c2ccc(-c3cc(C)c(C(=O)N4CC[C@H](N)C4)s3)cc2)CC1 [Compound 182, (S)-(3-aminopyrrolidin-1-yl)(3-methyl-5-(4-(1-propylpiperidin-4-yl)phenyl)thiophen-2-yl)methanone]
< 500 nM | 2000 to 6000 nM | Cc1cc(-c2ccc3c(c2)CCNC3)sc1C(=O)N1CC[C@H](N)C1 [Compound 199, (S)-(3-aminopyrrolidin-1-yl)(3-methyl-5-(1,2,3,4-tetrahydroisoquinolin-6-yl)thiophen-2-yl)methanone]
< 500 nM | 2000 to 6000 nM | Cc1cc(-c2ccc(C(C)N(C)C)cc2)sc1C(=O)N1CC[C@H](N)C1 (stereo partly drawn) [Compound 200, ((S)-3-aminopyrrolidin-1-yl)(5-(4-(1-(dimethylamino)ethyl)phenyl)-3-methylthiophen-2-yl)methanone]
– | 1000 to 2000 nM | Cc1cc(-c2ccc(CN(C)C)cc2)sc1C(=O)N1CC[C@H](N)C1 [Compound 217, (S)-(3-aminopyrrolidin-1-yl)(5-(4-((dimethylamino)methyl)phenyl)-3-methylthiophen-2-yl)methanone]
